The values that follow come from ChEMBL document CHEMBL1201862, “PubChem BioAssay data set” (2004).

Molecules are shown by their SMILES.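 Values below derive from 48-hour exposures of cells grown in 96-well plates, with endpoints linearly interpolated between the two concentrations bracketing the appropriate inhibition level. At the GI50, growth is halved.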 Calls of active or inactive are those of the source. No stated cut-off is given here; in the data, active = GI50 up to about 1.1 µM and inactive = higher. A value given as a limit tells only on which side of the number the result lay.

Some test systems named below: LOX IMVI; K562; OVCAR-4; NCI/ADR-RES; HOP-62; HCT-15; BT-549; SN12C; HCT-116; NCI-H522; NCI-H460; SW-620; EKVX; NCI-H23; ACHN; HL-60; UACC-257; MDA-MB-435; RXF 393; TK-10.
What all share (test): NCI-60 cell line screen, 48 h

In the case of `CN(C)c1nc(-c2ccccc2)c(C(=O)c2c[nH]c3ccccc23)s1`, the GI50 with LOX IMVI was 6.49 µM (inactive); with K562 it was 4.07 µM (inactive); with OVCAR-4, 17.4 µM (inactive); in the experiment on NCI/ADR-RES, 3.06 µM (inactive); in the experiment on HOP-62 it was 15.1 µM (inactive); in the experiment with HCT-15, 3.9 µM. Also, the GI50 was > 100 µM (inactive) in the experiment on BT-549; 18.2 µM (inactive) in the experiment on SN12C; 3.88 µM (inactive) in the experiment with HCT-116; 2.76 µM (inactive) in the experiment with NCI-H522; 3.55 µM (inactive) with NCI-H460; 5.24 µM (inactive) with SW-620. In addition, the GI50 was 26 µM (inactive) with EKVX; 30 µM (inactive) in the experiment on NCI-H23; 30.5 µM (inactive) in the experiment on ACHN; 3.4 µM (inactive) in the experiment on HL-60; 6.71 µM (inactive) with UACC-257; 2.09 µM (inactive) with MDA-MB-435. Also, the GI50 with RXF 393 was 14.2 µM (inactive); in the experiment with TK-10, 7.53 µM (inactive).
With `O=C(O)Cc1ccc(Nc2nc3ccccc3nc2C(=O)O)cc1`, the GI50 in the experiment with LOX IMVI is > 100 µM (inactive); in the experiment on OVCAR-4 it was > 100 µM (inactive); with NCI/ADR-RES it was > 100 µM (inactive); with HOP-62, > 100 µM (inactive); in the experiment on HCT-15 it was over 100 µM; in the experiment on BT-549, > 100 µM (inactive). Also, the GI50 with SN12C, in the experiment with HCT-116, with NCI-H522, with NCI-H460, in the experiment with SW-620 and in the experiment on EKVX was > 100 µM (inactive) in each case. The GI50 in the experiment with NCI-H23, in the experiment with ACHN, with HL-60, with UACC-257, in the experiment on MDA-MB-435 and in the experiment on RXF 393 was > 100 µM (inactive) in each case. In addition, in the experiment with TK-10, the GI50 is > 100 µM (inactive).
For `C[C@]12CCC3c4ccc(O)cc4CC[C@H]3C1CC(=O)NC2=O` (stereo not given in full), the GI50 is > 10 µM (inactive) in the experiment with LOX IMVI; > 10 µM (inactive) in the experiment on K562; > 10 µM (inactive) with OVCAR-4; > 10 µM (inactive) with NCI/ADR-RES; > 10 µM (inactive) in the experiment with HOP-62; over 10 µM in the experiment on HCT-15. In addition, the GI50 in the experiment on BT-549, in the experiment on SN12C, with HCT-116, with NCI-H460, with SW-620 and in the experiment on NCI-H23 was > 10 µM (inactive) in each case. Besides, the GI50 in the experiment on ACHN, in the experiment with HL-60, in the experiment with UACC-257, with MDA-MB-435, with RXF 393 and in the experiment on TK-10 was > 10 µM (inactive) each time.
As to `C/C(=N\n1c(Cc2ccccc2)n[nH]c1=O)c1ccccc1`, the GI50 is > 100 µM (inactive) in the experiment on LOX IMVI; > 100 µM (inactive) in the experiment with K562; > 100 µM (inactive) in the experiment on OVCAR-4; > 100 µM (inactive) with NCI/ADR-RES; over 100 µM in the experiment with HCT-15; > 100 µM (inactive) in the experiment with BT-549. In addition, the GI50 in the experiment with SN12C was > 100 µM (inactive); in the experiment with HCT-116 it was > 100 µM (inactive); in the experiment on NCI-H522 it was > 100 µM (inactive); in the experiment with SW-620, > 100 µM (inactive); with EKVX, 94.4 µM (inactive); with NCI-H23, > 100 µM (inactive). Also, the GI50 in the experiment on ACHN, with HL-60, in the experiment on UACC-257, in the experiment with MDA-MB-435, with RXF 393 and in the experiment on TK-10 was > 100 µM (inactive) in each case.
For `CC(C)(CO)N1C(=O)c2ccccc2C1(O)c1ccc(Cl)cc1` (stereo not given), the GI50 in the experiment on K562 was > 100 µM (inactive); in the experiment on OVCAR-4 it was 94 µM (inactive); in the experiment with NCI/ADR-RES, > 100 µM (inactive); in the experiment on HOP-62, > 100 µM (inactive); in the experiment on HCT-15, over 100 µM; with BT-549 it was > 100 µM (inactive). The GI50 in the experiment with SN12C is > 100 µM (inactive); with HCT-116, > 100 µM (inactive); with NCI-H522, > 100 µM (inactive); in the experiment on NCI-H460 it was 84.9 µM (inactive); in the experiment with SW-620, > 100 µM (inactive); in the experiment on EKVX, > 100 µM (inactive). For the same compound, the GI50 in the experiment on NCI-H23 is > 100 µM (inactive); with ACHN, > 100 µM (inactive); in the experiment on HL-60, > 100 µM (inactive); with UACC-257 it was > 100 µM (inactive); in the experiment with MDA-MB-435, > 100 µM (inactive); in the experiment on RXF 393 it was 39.9 µM (inactive). The GI50 in the experiment with TK-10 was > 100 µM (inactive).
Regarding `C=C(Cl)/C(=C\Br)CCC(Cl)C(C)C.C=C(Cl)/C(=C\Cl)CCC(Cl)C(C)C` (stereo not given), the GI50 with LOX IMVI is 1.67 µM (inactive); in the experiment on K562 it was 4.03 µM (inactive); in the experiment with OVCAR-4, 16.3 µM (inactive); in the experiment on NCI/ADR-RES, 27.5 µM (inactive); with HOP-62, 18.3 µM (inactive); with BT-549 it was 15.2 µM (inactive). The GI50 in the experiment with SN12C was 17.2 µM (inactive); in the experiment on HCT-116, 16.1 µM (inactive); in the experiment on NCI-H522, 4.73 µM (inactive); with NCI-H460 it was 18.1 µM (inactive); with SW-620 it was 2.75 µM (inactive); with EKVX, 18.7 µM (inactive). In addition, the GI50 with NCI-H23 is 14.6 µM (inactive); in the experiment with ACHN, 16.8 µM (inactive); with HL-60, 4.24 µM (inactive); with UACC-257, 13.6 µM (inactive); in the experiment on MDA-MB-435, 15.3 µM (inactive); in the experiment on RXF 393, 11.3 µM (inactive). For the same compound, the GI50 in the experiment on TK-10 is 19.8 µM (inactive).
`C[C@]12CC[C@H](OC3OC(CO)C(O)C(O)C3O)C[C@H]1CC[C@@H]1[C@@H]2CC[C@]2(C)[C@@H](C3=CCOC3=O)CC[C@]12O` (stereo not given in full) [ACTODIGIN]: the GI50 was 0.495 µM (active) in the experiment with LOX IMVI; 21.5 µM (inactive) in the experiment with K562; 41 µM (inactive) in the experiment with OVCAR-4; 24.4 µM (inactive) in the experiment on NCI/ADR-RES; 0.787 µM (active) in the experiment with HOP-62; 22.7 µM with HCT-15. Also, the GI50 is > 100 µM (inactive) with BT-549; 20.1 µM (inactive) with SN12C; 15.7 µM (inactive) in the experiment with HCT-116; 16.8 µM (inactive) in the experiment with NCI-H522; 18.6 µM (inactive) with SW-620; 16.5 µM (inactive) in the experiment with EKVX. Further, the GI50 in the experiment with NCI-H23 is 15.8 µM (inactive); in the experiment on ACHN, 14.5 µM (inactive); in the experiment with HL-60, 4.51 µM (inactive); in the experiment with MDA-MB-435, > 100 µM (inactive); in the experiment on RXF 393, 8.49 µM (inactive); in the experiment on TK-10, > 100 µM (inactive).
As for `C/C(=N\Nc1ccccc1Br)c1cccc(/C(C)=N/Nc2ccccc2Br)n1`, the GI50 with LOX IMVI is > 100 µM (inactive); with K562 it was 39.7 µM (inactive); in the experiment on OVCAR-4 it was > 100 µM (inactive); with NCI/ADR-RES, > 100 µM (inactive); with HOP-62, 49.8 µM (inactive); with HCT-15 it was over 100 µM. The GI50 with BT-549, with SN12C, in the experiment on HCT-116, in the experiment with NCI-H460, with SW-620 and with EKVX was > 100 µM (inactive) each time. Besides, the GI50 with NCI-H23 is > 100 µM (inactive); in the experiment with ACHN it was > 100 µM (inactive); with HL-60 it was > 100 µM (inactive); in the experiment with UACC-257 it was > 100 µM (inactive); in the experiment with MDA-MB-435, 30 µM (inactive); in the experiment with RXF 393 it was 19.7 µM (inactive). For the same compound, the GI50 with TK-10 was 69.7 µM (inactive).
For `CON(C)C(=O)C(Cc1ccccc1)NC(=O)OC(C)(C)C` (stereo not given), the GI50 is > 100 µM (inactive) with K562; > 100 µM (inactive) in the experiment on NCI/ADR-RES; > 100 µM (inactive) in the experiment with HOP-62; over 100 µM in the experiment on HCT-15; > 100 µM (inactive) in the experiment on BT-549; > 100 µM (inactive) in the experiment with SN12C. In addition, the GI50 in the experiment with HCT-116, in the experiment with NCI-H460, with SW-620, in the experiment with EKVX, in the experiment on NCI-H23 and in the experiment with ACHN was > 100 µM (inactive) in each case. For the same compound, the GI50 in the experiment with HL-60, with UACC-257, in the experiment on MDA-MB-435, in the experiment on RXF 393 and with TK-10 was > 100 µM (inactive) in each case.
As to `CC(=O)C(C(C)=O)[C@H]1OC(C)(C)O[C@H]1[C@H]1COC(C)(C)O1`, the GI50 in the experiment with LOX IMVI is 32.7 µM (inactive); in the experiment on K562, 34.4 µM (inactive); with OVCAR-4, 40.6 µM (inactive); in the experiment on NCI/ADR-RES, 28.6 µM (inactive); in the experiment on HOP-62 it was 23.4 µM (inactive); with HCT-15, 29.6 µM. For the same compound, the GI50 with BT-549 was 28.4 µM (inactive); with SN12C, 29.6 µM (inactive); in the experiment with HCT-116 it was 45.2 µM (inactive); with NCI-H522, 33.8 µM (inactive); with NCI-H460 it was 32.4 µM (inactive); in the experiment on SW-620 it was 56.8 µM (inactive). Further, the GI50 is 50.6 µM (inactive) in the experiment with EKVX; 30.8 µM (inactive) in the experiment on NCI-H23; 57.5 µM (inactive) in the experiment on ACHN; 49.4 µM (inactive) with UACC-257; 27.7 µM (inactive) with MDA-MB-435; 36.2 µM (inactive) with RXF 393. Also, the GI50 in the experiment with TK-10 was > 100 µM (inactive).
In the case of `Cc1ccc(OCC2CO2)c(Br)c1` (stereo not given), the GI50 was 12.1 µM (inactive) in the experiment on LOX IMVI; 22.3 µM (inactive) in the experiment on K562; 14.7 µM (inactive) with OVCAR-4; 15.8 µM (inactive) in the experiment with NCI/ADR-RES; 39.4 µM (inactive) in the experiment on HOP-62; 14 µM in the experiment on HCT-15. Moreover, the GI50 with BT-549 was < 0.01 µM (active); in the experiment on SN12C, 18.6 µM (inactive); in the experiment with HCT-116, 16.1 µM (inactive); in the experiment on NCI-H460, 21.9 µM (inactive); in the experiment on SW-620, 12.7 µM (inactive); in the experiment on EKVX it was 13.8 µM (inactive). Also, the GI50 in the experiment with NCI-H23 is 22.5 µM (inactive); in the experiment with ACHN it was 5.5 µM (inactive); in the experiment with HL-60 it was 30.1 µM (inactive); in the experiment on UACC-257, 37.8 µM (inactive); in the experiment with MDA-MB-435, 18.7 µM (inactive); in the experiment on RXF 393, 10.1 µM (inactive). Besides, the GI50 in the experiment on TK-10 is 30.3 µM (inactive).
